Laboratory results reported in the supplement of paper PMC9262897, “Low-cost anti-mycobacterial drug discovery using engineered E. coli” (Nature Communications, 2022).
± gives the standard deviation of the averaged measurements.

Columns and labels:
[1] = tested on: E. coli TESEC Mtb Alr; experiment: growth (OD600 after 10 h, mean); higher = more growth;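 note: E. coli lacking its native Alr, complemented by codon-optimized Mtb Alr under a feedback-controlled arabinose-inducible plasmid circuit, grown in defined medium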
Experimental: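 TESEC Mtb Alr E. coli grown in a two-dimensional dilution series of drug (µM) and arabinose (12 to 1e8 nM). Growth is read as OD600 after 10 h; values are means of 3 biological replicates.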

[2] = tested on: Efflux+; experiment: growth (OD600 after 24 h); higher = more growth
Experimental: (§1)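 E. coli BW25113 ΔaraC (Efflux+) or efflux-pump deletion strains (ΔtolC ΔentC, ΔemrE, ΔmdtI, ΔyeeO, ΔmdtK, ΔmdtM) diluted 1:100 in M9-based medium with a drug dilution series. Growth is read as OD600 after 24 h; 3 biological replicates.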

[3] = tested on: ∆emrE; experiment: growth (OD600 after 24 h); higher = more growth
Experimental: as §1

[4] = tested on: ∆mdtI; experiment: growth (OD600 after 24 h); higher = more growth
Experimental: as §1

[5] = tested on: ∆mdtK; experiment: growth (OD600 after 24 h); higher = more growth
Experimental: as §1

[6] = tested on: ∆mdtM; experiment: growth (OD600 after 24 h); higher = more growth
Experimental: as §1

[7] = tested on: ∆tolC ∆entC; experiment: growth (OD600 after 24 h); higher = more growth
Experimental: as §1

[8] = tested on: ∆yeeO; experiment: growth (OD600 after 24 h); higher = more growth
Experimental: as §1

[9] = tested on: E. coli TESEC strain (Mtb target enzyme); experiment: growth (OD600 after 10 h); higher = more growth
Experimental: (§2)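 Chemical-genetic validation profiles: TESEC strains (Mtb Asd or DapB, arabinose-inducible) or the wild-type control grown in a two-dimensional dilution series of drug (µM) and arabinose. Growth is read as OD600 after 10 h in triplicate.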

[10] = tested on: E. coli wild-type control; experiment: growth (OD600 after 10 h); higher = more growth
Experimental: as §2

CC(C)c1ccc2oc3nc(N)c(C(=O)O)cc3c(=O)c2c1 [Amlexanox]
growth, [1]
Details	drug 15.62 µM	drug 31.25 µM	drug 62.5 µM	drug 125 µM	drug 250 µM
arabinose 12 nM	0.4	0.356	0.319	0.272	–
arabinose 24 nM	0.391	0.357	0.317	0.266	–
arabinose 48 nM	0.385	0.352	0.318	0.261	–
arabinose 95 nM	0.382	0.348	0.31	0.265	–
arabinose 191 nM	0.377	0.349	0.319	0.262	–
arabinose 381 nM	0.378	0.346	0.309	0.259	–
arabinose 763 nM	0.382	0.348	0.305	0.261	–
arabinose 1526 nM	0.386	0.352	0.304	0.259	0.264
arabinose 3052 nM	0.375	0.357	0.301	0.257	0.264
arabinose 6104 nM	0.367	0.336	0.29	0.262	0.266
arabinose 12207 nM	0.325	0.306	0.278	0.275	0.281
arabinose 24414 nM	0.282	0.276	0.274	0.285	–
arabinose 48828 nM	0.264	0.266	0.28	0.295	–
arabinose 97656 nM	0.254	0.261	0.28	0.289	–
arabinose 195312 nM	0.268	0.273	0.291	0.284	–
arabinose 390625 nM	0.289	0.298	0.305	0.277	–
arabinose 781250 nM	0.31	0.317	0.304	0.268	–
arabinose 1562500 nM	0.312	0.313	0.297	0.265	–
arabinose 3125000 nM	0.307	0.302	0.292	0.259	–
arabinose 6250000 nM	0.301	0.297	0.286	0.255	–
arabinose 12500000 nM	0.302	0.293	0.284	0.248	–
arabinose 25000000 nM	0.298	0.299	0.282	0.235	–
arabinose 50000000 nM	0.286	0.282	0.259	0.213	–
arabinose 100000000 nM	0.216	0.212	0.216	0.16	–

CN(Cc1cc(Br)cc(Br)c1N)C1CCCCC1 [Bromhexine]
growth
Details	[2]	[3]	[4]	[5]	[6]	[7]	[8]
drug 3 µM	1.027 ± 0.0028	0.992 ± 0.12	1.04 ± 0.013	0.772 ± 0.028	0.825 ± 0.019	0.894 ± 0.032	0.897 ± 0.031
drug 6.25 µM	0.989 ± 0.039	1.08 ± 0.013	1.01 ± 0.029	0.792 ± 0.037	0.819 ± 0.0087	0.989 ± 0.08	0.881 ± 0.019
drug 12.5 µM	0.974 ± 0.015	1.06 ± 0.059	0.992 ± 0.027	0.762 ± 0.013	0.805 ± 0.015	0.94 ± 0.074	0.881 ± 0.035
drug 25 µM	0.9831 ± 0.0073	1.02 ± 0.012	0.996 ± 0.026	0.737 ± 0.016	0.8363 ± 0.0059	0.564 ± 0.044	0.8876 ± 0.0046
drug 50 µM	1 ± 0.019	1.02 ± 0.012	0.994 ± 0.024	0.743 ± 0.017	0.8474 ± 0.0022	0.05317 ± 0.00038	0.905 ± 0.015
drug 100 µM	0.998 ± 0.015	1.04 ± 0.05	0.9907 ± 0.0066	0.7706 ± 0.0068	0.8478 ± 0.0051	0.0597 ± 0.0019	0.917 ± 0.0091

CN(Cc1cc(Br)cc(Br)c1N)C1CCCCC1 [Bromhexine] (TESEC target enzyme: Mtb Asd)
growth
Details	drug 0.3 µM	drug 0.8 µM	drug 1.7 µM	drug 3.9 µM	drug 8.8 µM	drug 19.8 µM	drug 44.4 µM
[9], arabinose 15560 nM	0.18 ± 0.051	0.153 ± 0.0073	–	–	–	–	–
[9], arabinose 28008 nM	0.229 ± 0.064	0.178 ± 0.052	–	–	–	–	–
[9], arabinose 50414 nM	0.207 ± 0.05	0.177 ± 0.016	–	–	–	–	–
[9], arabinose 90744 nM	0.215 ± 0.071	0.211 ± 0.042	–	–	–	–	–
[9], arabinose 163340 nM	0.257 ± 0.021	0.239 ± 0.017	–	–	–	–	–
[9], arabinose 294012 nM	0.293 ± 0.026	0.302 ± 0.033	–	–	–	–	–
[9], arabinose 529221 nM	0.32 ± 0.011	0.291 ± 0.031	–	–	–	–	–
[9], arabinose 952599 nM	0.355 ± 0.0086	0.368 ± 0.026	–	–	–	–	–
[9], arabinose 1714678 nM	0.336 ± 0.038	0.387 ± 0.023	–	–	–	–	–
[9], arabinose 3086420 nM	0.328 ± 0.017	0.361 ± 0.016	–	–	–	–	–
[9], arabinose 5555556 nM	0.321 ± 0.0088	0.333 ± 0.033	–	–	–	–	–
[9], arabinose 10000000 nM	0.341 ± 0.023	0.34 ± 0.013	–	–	–	–	–
[10], arabinose 15560 nM	0.134 ± 0.041	0.163 ± 0.0029	0.156 ± 0.055	0.16 ± 0.011	0.172 ± 0.0042	0.162 ± 0.0097	–
[10], arabinose 28008 nM	0.149 ± 0.028	0.159 ± 0.039	0.162 ± 0.0094	0.172 ± 0.016	0.164 ± 0.016	0.1736 ± 0.0012	–
[10], arabinose 50414 nM	0.17 ± 0.028	0.144 ± 0.0066	0.17 ± 0.014	0.16 ± 0.037	0.157 ± 0.034	0.172 ± 0.0041	–
[10], arabinose 90744 nM	0.167 ± 0.034	0.21 ± 0.037	0.174 ± 0.011	0.193 ± 0.016	0.178 ± 0.015	0.177 ± 0.032	–
[10], arabinose 163340 nM	0.157 ± 0.0042	0.178 ± 0.031	0.161 ± 0.037	0.187 ± 0.024	0.146 ± 0.028	0.194 ± 0.0046	–
[10], arabinose 294012 nM	0.156 ± 0.023	0.191 ± 0.019	0.204 ± 0.0089	0.229 ± 0.062	0.182 ± 0.022	0.198 ± 0.012	–
[10], arabinose 529221 nM	0.18 ± 0.0067	0.202 ± 0.0097	0.201 ± 0.016	0.194 ± 0.016	0.186 ± 0.035	0.221 ± 0.035	–
[10], arabinose 952599 nM	0.238 ± 0.05	0.231 ± 0.012	0.209 ± 0.0077	0.214 ± 0.0092	0.214 ± 0.016	0.236 ± 0.04	0.203 ± 0.0076
[10], arabinose 1714678 nM	0.213 ± 0.036	0.221 ± 0.015	0.208 ± 0.018	0.232 ± 0.028	0.223 ± 0.032	0.253 ± 0.015	0.198 ± 0.017
[10], arabinose 3086420 nM	0.207 ± 0.05	0.23 ± 0.022	0.212 ± 0.015	0.254 ± 0.025	0.204 ± 0.018	0.267 ± 0.031	0.235 ± 0.02
[10], arabinose 5555556 nM	0.189 ± 0.011	0.214 ± 0.012	0.206 ± 0.0033	0.198 ± 0.035	0.201 ± 0.0027	0.218 ± 0.031	0.232 ± 0.05
[10], arabinose 10000000 nM	0.174 ± 0.015	0.21 ± 0.045	0.163 ± 0.079	0.217 ± 0.0087	0.173 ± 0.03	0.21 ± 0.025	–

N[C@@H]1CONC1=O [D-cycloserine]
growth, [1]
Details	drug 7.81 µM	drug 15.62 µM	drug 31.25 µM	drug 62.5 µM	drug 125 µM
arabinose 12 nM	0.367	0.327	0.0519	0.0505	–
arabinose 24 nM	0.363	0.325	0.0523	0.0512	–
arabinose 48 nM	0.367	0.326	0.0519	0.0518	–
arabinose 95 nM	0.358	0.336	0.0543	0.0501	–
arabinose 191 nM	0.376	0.332	0.121	0.0494	–
arabinose 381 nM	0.373	0.348	0.254	0.05	–
arabinose 763 nM	0.382	0.365	0.305	0.0501	–
arabinose 1526 nM	0.38	0.373	0.349	0.131	0.0482
arabinose 3052 nM	0.367	0.373	0.386	0.29	0.0489
arabinose 6104 nM	0.357	0.356	0.411	0.348	0.0678
arabinose 12207 nM	0.329	0.328	0.375	0.378	0.251
arabinose 24414 nM	0.288	0.298	0.315	0.371	–
arabinose 48828 nM	0.285	0.291	0.29	0.341	–
arabinose 97656 nM	0.29	0.284	0.292	0.306	–
arabinose 195312 nM	0.306	0.3	0.311	0.31	–
arabinose 390625 nM	0.318	0.32	0.322	0.327	–
arabinose 781250 nM	0.307	0.304	0.312	0.32	–
arabinose 1562500 nM	0.282	0.283	0.29	0.294	–
arabinose 3125000 nM	0.269	0.264	0.272	0.276	–
arabinose 6250000 nM	0.253	0.247	0.25	0.252	–
arabinose 12500000 nM	0.237	0.234	0.248	0.239	–
arabinose 25000000 nM	0.225	0.229	0.227	0.231	–
arabinose 50000000 nM	0.195	0.204	0.199	0.204	–
arabinose 100000000 nM	0.154	0.163	0.16	0.16	–
